# What was measured:
# Experiment in all cases: relative viability (nuclei count vs DMSO), 5 days (fraction); higher = more cells survive
# Bleomycin + Trametinib = compound: CC1=C(N=C(N=C1N)[C@H](CC(=O)N)NC[C@@H](C(=O)N)N)C(=O)N[C@@H]([C@H](C2=CN=CN2)OC3C(C(C(C(O3)CO)O)O)OC4C(C(C(C(O4)CO)O)OC(=O)N)O)C(=O)N[C@H](C)[C@H]([C@H](C)C(=O)N[C@@H]([C@@H](C)O)C(=O)NCCC5=NC(=CS5)C6=NC(=CS6)C(=O)NCCC[S+](C)C)O [Bleomycin] + CC(=O)Nc1cccc(-n2c(=O)n(C3CC3)c(=O)c3c(Nc4ccc(I)cc4F)n(C)c(=O)c(C)c32)c1 [Trametinib] (partner 0.02 µM); settings: main component drawn
# Summary of the method: (§1)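 Dosing by pin tool came one day after lung cancer cell lines were seeded in 1536-well plates, using either one drug or a fixed anchor-drug dose plus five library-drug doses (not always all listed) in √10 steps. After 5 days, nuclei were counted on 4× images. Relative viability is treated-well nuclei count divided by vehicle-well nuclei count, and values are medians of duplicate plates.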
# Bleomycin + Phenformin = compound: CC1=C(N=C(N=C1N)[C@H](CC(=O)N)NC[C@@H](C(=O)N)N)C(=O)N[C@@H]([C@H](C2=CN=CN2)OC3C(C(C(C(O3)CO)O)O)OC4C(C(C(C(O4)CO)O)OC(=O)N)O)C(=O)N[C@H](C)[C@H]([C@H](C)C(=O)N[C@@H]([C@@H](C)O)C(=O)NCCC5=NC(=CS5)C6=NC(=CS6)C(=O)NCCC[S+](C)C)O [Bleomycin] + N=C(N)NC(=N)NCCc1ccccc1 [Phenformin] (partner 250 µM); settings: main component drawn
# Summary of the method: as §1
# Bleomycin + Decitabine = compound: CC1=C(N=C(N=C1N)[C@H](CC(=O)N)NC[C@@H](C(=O)N)N)C(=O)N[C@@H]([C@H](C2=CN=CN2)OC3C(C(C(C(O3)CO)O)O)OC4C(C(C(C(O4)CO)O)OC(=O)N)O)C(=O)N[C@H](C)[C@H]([C@H](C)C(=O)N[C@@H]([C@@H](C)O)C(=O)NCCC5=NC(=CS5)C6=NC(=CS6)C(=O)NCCC[S+](C)C)O [Bleomycin] + Nc1ncn([C@H]2C[C@H](O)[C@@H](CO)O2)c(=O)n1 [Decitabine] (partner 2 µM); settings: main component drawn
# Summary of the method: as §1
# Etoposide + Navitoclax = compound: COc1cc([C@@H]2c3cc4c(cc3[C@@H](O[C@@H]3O[C@@H]5CO[C@@H](C)O[C@H]5[C@H](O)[C@H]3O)[C@H]3COC(=O)[C@H]23)OCO4)cc(OC)c1O [Etoposide] + CC1(C)CCC(c2ccc(Cl)cc2)=C(CN2CCN(c3ccc(C(=O)NS(=O)(=O)c4ccc(N[C@H](CCN5CCOCC5)CSc5ccccc5)c(S(=O)(=O)C(F)(F)F)c4)cc3)CC2)C1 [Navitoclax] (partner 0.5 µM)
# Summary of the method: as §1
Cell Line,relative viability (Bleomycin + Trametinib; first compound 0.01 µM),relative viability (Bleomycin + Trametinib; first compound 0.03162 µM),relative viability (Bleomycin + Trametinib; first compound 0.1 µM),relative viability (Bleomycin + Trametinib; first compound 0.3162 µM),relative viability (Bleomycin + Trametinib; first compound 1 µM),relative viability (Bleomycin + Phenformin; first compound 0.01 µM),relative viability (Bleomycin + Phenformin; first compound 0.03162 µM),relative viability (Bleomycin + Phenformin; first compound 0.1 µM),relative viability (Bleomycin + Phenformin; first compound 0.3162 µM),relative viability (Bleomycin + Phenformin; first compound 1 µM),relative viability (Bleomycin + Decitabine; first compound 0.01 µM),relative viability (Bleomycin + Decitabine; first compound 0.03162 µM),relative viability (Bleomycin + Decitabine; first compound 0.1 µM),relative viability (Bleomycin + Decitabine; first compound 0.3162 µM),relative viability (Bleomycin + Decitabine; first compound 1 µM),relative viability (Etoposide + Navitoclax; first compound 0.01 µM),relative viability (Etoposide + Navitoclax; first compound 0.03162 µM),relative viability (Etoposide + Navitoclax; first compound 0.1 µM),relative viability (Etoposide + Navitoclax; first compound 0.3162 µM),relative viability (Etoposide + Navitoclax; first compound 1 µM)
LXF-289,0.599,0.664,0.634,0.459,0.2,0.471,0.477,0.446,0.174,0.0704,0.381,0.407,0.406,0.24,0.161,0.977,0.971,0.984,0.605,0.174
NCI-H2009,0.296,0.275,0.276,0.258,0.224,0.474,0.512,0.489,0.403,0.383,0.39,0.392,0.353,0.293,0.271,1.13,1.08,1.21,0.771,0.496
NCI-H3122,0.257,0.247,0.231,0.185,0.187,0.341,0.379,0.5,0.194,0.198,0.441,0.49,0.358,0.324,0.26,1.05,1.04,1.05,0.877,0.477
NCI-H1755,0.734,0.726,0.78,0.665,0.61,0.562,0.589,0.593,0.507,0.39,0.667,0.706,0.651,0.561,0.506,0.917,1.03,1.07,0.939,0.882
HCC-78,0.575,0.679,0.651,0.632,0.593,0.573,0.74,0.581,0.321,0.403,0.624,0.702,0.639,0.645,0.423,0.728,0.798,0.341,0.313,0.158
LOU-NH91,0.669,0.547,0.484,0.409,0.357,0.686,0.488,0.515,0.383,0.343,0.624,0.611,0.472,0.38,0.406,0.695,0.654,0.504,0.464,0.329
NCI-H322M,0.477,0.524,0.479,0.385,0.504,0.655,0.74,0.72,0.377,0.353,0.809,0.612,0.635,0.659,0.48,1.29,1.37,1.01,0.886,0.574
HCC-827,0.495,,0.502,0.273,0.209,0.351,0.311,0.361,0.304,0.172,0.304,,0.287,0.249,0.198,1.03,0.985,0.956,0.613,0.331
SW 1573,0.47,0.424,0.322,0.191,0.141,0.276,0.316,0.272,0.205,0.14,0.368,0.442,0.311,0.19,0.197,0.926,0.946,0.639,0.209,0.0658
NCI-H1975,0.326,0.284,0.327,0.226,0.152,0.322,0.316,0.253,0.162,0.123,0.327,0.437,0.291,0.209,0.177,1.09,1.33,1.06,0.701,0.468
NCI-H1651,0.818,0.712,0.714,0.368,0.223,0.314,0.298,0.303,0.17,0.189,0.619,0.461,0.477,0.333,0.192,0.866,0.881,0.808,0.242,0.154
NCI-H460,0.107,0.0848,0.0692,0.0357,0.0155,0.287,0.275,0.124,0.0345,0.0288,0.301,0.228,0.279,0.0468,0.0408,0.93,0.796,0.6,0.0627,0.0154
LCLC-97TM1,0.169,0.195,0.16,0.169,0.106,0.337,0.401,0.241,0.192,0.173,0.2,0.156,0.168,0.158,0.0988,,0.62,0.327,0.178,0.141
NCI-H838,0.432,0.246,0.186,0.154,0.118,0.381,0.297,0.185,0.188,0.153,0.398,0.369,0.297,0.228,0.478,1.09,1.14,1.19,0.705,0.338
NCI-H1355,0.415,0.385,0.482,0.317,0.198,0.432,0.487,0.429,0.27,0.194,0.319,0.341,0.371,0.314,0.2,0.881,1.17,0.479,0.684,0.323
HOP-62,0.34,0.278,0.264,0.203,0.159,0.395,0.447,0.239,0.185,0.105,0.157,0.197,0.137,0.154,0.118,1.07,0.995,0.987,0.598,0.236
NCI-H2085,0.549,0.514,0.384,0.243,0.226,0.599,0.595,0.55,0.329,0.306,0.558,0.551,0.418,0.421,0.339,1.16,1.06,1.11,0.67,0.354

# — the supplement of paper PMC10307832
